In series [1] the test system is Spontaneous Hypertensive Rats (SHR). The series is described as follows: Hypotensive activity in spontaneous hypertensive rats (SHR). The class given is in vivo, Male SHR (Okamoto) rats. As to conditions: for ED (25%): Rattus norvegicus, po, p.o. in 0.4% carboxymethyl cellulose, systolic arterial pressure, read-out: Hypotensive activity in SHR ED^SABP -25%; for Hypotensive activity compared with Nifedipine: versus Nifedipine. The procedure: Hypotensive Activity in Spontaneous Hypertensive Rats (SHR)
Male SHR (Okamoto), of 70-100 days of age were used. The systolic arterial pressure (SABP) was determined by applying to the tail of the animal a pressure transducer with a sleeve connected to a BP-Recorder (W-W Electronic of Basel). The animals were previously warmed to 39° C. for a period of 15-20 minutes in a ventilated chamber.
The rats were previously trained to the registration for 1-2 days prior to the start of the experiment which consisted of a basic registration, the pharmacological treatment and then of subsequent registrations one hour and three hours after the treatment.
All the products were administered orally (p.o.), suspended in 0.4% carboxymethyl cellulose (Methocel); the volume of vehicle was 2 ml per kg.
The compounds of formula (I) were tested at three dose levels and the value of ED-25% was determined.

Another series in a line: in vivo. Particulars: mouse, iv, mice, i.v. in dimethylsulfoxide, after seven days, Litchfield and Wilcoxon. The protocol: Intravenous Toxicity in Mice
Male CD1 mice from Charles River (Italy), weighing 25 g were used. Compounds were administered intravenously (i.v.), dissolved in dimethylsulfoxide, and the volume of administration was 0.01 ml per 10 g of body weight. The LD50 after seven days, was calculated according to the method of Litchfield and Wilcoxon (Experimental Therapeutics 96, 99 (1949)).

The next series deals with taenia coli. The series is described as follows: Antagonistic activity to calcium in the taenia coli of guinea pigs (CaCl2-induced contractions, in vitro). Particulars: for IC50: Cavia porcellus, 10 min, read-out: Calcium antagonistic activity in vitro ED50; for Inhibition of contractions due to CaCl2 after washing of the tissue: taenia coli, repeated washing. Format: cell-based, Hartley albino guinea pigs. The protocol:
Antagonistic Activity to Calcium in the Taenia Coli of Guinea Pigs
Hartley albino guinea pigs of average weight 450 g were used. The calcium antagonistic activity was determined stimulating the taenia coli, previously depolarized, with a single submaximal concentration of CaCl2 (10^-3 M), at intervals of 20 minutes (according to the method Naunyn Schmied. Arch. Pharmacol. 318, 235 (1982)). The products were left in contact with the preparation for 10 minutes. The ED50 were calculated from the percentage of maximum inhibition.

[2] abbreviates: guinea pig taenia coli, depolarized, CaCl2 10^-3 M, 10 min contact, from maximum inhibition.

Like-named read-outs stand apart in the source and are kept apart here.

Regarding `COCCOC(=O)C1=C(C)NC(C)=C(C(=O)OCCN2CCN(c3ccc(Cl)cc3)CC2)C1c1cccc([N+](=O)[O-])c1` (centres unmarked) [0293C, 2-[4-(4-Chlorophenyl)]piperazinoethyl-2,6-dimethyl-4-(3-nitrophenyl)-5-(2-methoxy)ethoxycarbonyl-1,4-dihydropyridine-3-carboxylate], in series [1], the ED (25%) is 10.5 mg/kg. This molecule displayed an LD50 at 168 h in “in vivo” of 16 mg/kg. For the same molecule, the IC50 in the series on taenia coli (setting [2]) worked out at 4.1 nM.
`COC(=O)C1=C(C)NC(C)=C(C(=O)OCCN2CCN(c3ncccn3)CC2)C1c1cccc([N+](=O)[O-])c1` (centres unmarked) [0241A]: the ED (25%) in series [1] is 72 mg/kg. For the same molecule, the 50% lethal dose (LD50) at 168 h in “in vivo” is 34.6 mg/kg. Further, the IC50 in the series with taenia coli (setting [2]) was 4.6 nM. Also, the “Inhibition of contractions due to CaCl2 after washing of the tissue” value in the series with taenia coli is recorded as “readily reversible”.
With `CCOC(=O)C1=C(C)NC(C)=C(C(=O)OCCN2CCN(c3ccc(Cl)cc3)CC2)C1c1cccc([N+](=O)[O-])c1` (centres unmarked) [0294C, 2-[4-(4-Chlorophenyl)]piperazinoethyl-2,6-dimethyl-4-(3-nitrophenyl)-5-ethoxycarbonyl-1,4-dihydropyridine-3-carboxylate], the ED (25%) in series [1] is 4.2 mg/kg. The molecule also registered an LD50 at 168 h in “in vivo” of 19 mg/kg. The IC50 in the series with taenia coli (setting [2]) worked out at 5.1 nM.
As to `CC1=C(C(=O)OCCN2CCN(c3ccc(Cl)cc3)CC2)C(c2cccc([N+](=O)[O-])c2)C(C(=O)OCC(C)C)=C(C)N1` (centres unmarked) [0292C, 2-[4-(4-Chlorophenyl)]piperazinoethyl-2,6-dimethyl-4-(3-nitrophenyl)-5-isobutoxycarbonyl-1,4-dihydropyridine-3-carboxylate], in series [1], the ED (25%) amounted to 11.7 mg/kg. The LD50 at 168 h in “in vivo” was 35 mg/kg. For the same molecule, the IC50 in the series on taenia coli (setting [2]) came to 94 nM.
Take `COC(=O)C1=C(C)NC(C)=C(C(=O)OCCN2CCN(c3nccs3)CC2)C1c1cccc([N+](=O)[O-])c1` (centres unmarked) [0240A, 2-[4-(2-Thiazolyl)]piperazino-ethyl 2,6-dimethyl-4-(3-nitrophenyl)-5-methoxycarbonyl-1,4-dihydropyridine-3-carboxylate]: the ED (25%) in series [1] stood at 31 mg/kg. The 50% lethal dose (LD50) at 168 h in the series “in vivo” was 7.1 mg/kg. Further, in the series with taenia coli (setting [2]), the IC50 was found to be 4.2 nM.
Take `COC(=O)C1=C(C)NC(C)=C(C(=O)OCCN2CCN(c3ccc(F)cc3)CC2)C1c1cccc([N+](=O)[O-])c1` (centres unmarked) [0250B]: the ED (25%) in series [1] amounted to 7.5 mg/kg. Besides, in series [1] (p.o.), the “Duration of hypotensive activity (still present after)” value is at least 30 h and the “Hypotensive activity compared with Nifedipine” value is “superior activity”. In addition, the “Hypotensive activity relative to Nifedipine” value in series [1] (p.o., multiple of Nifedipine activity) was “about twice the activity of Nifedipine”. In “in vivo”, this molecule displayed an LD50 at 168 h of 17.7 mg/kg. Besides, in the series on taenia coli (setting [2]), the IC50 is 2.5 nM.
As to `COC(=O)C1=C(C)NC(C)=C(C(=O)OCCN2CCN(c3ccccc3C)CC2)C1c1cccc([N+](=O)[O-])c1` (centres unmarked) [0243A, 2-[4-(2-Tolyl)]piperazino-ethyl 2,6-dimethyl-4-(3-nitrophenyl)-5-methoxycarbonyl-1,4-dihydropyridine-3-carboxylate], in series [1], the ED (25%) stood at 6.6 mg/kg. This molecule yielded an LD50 at 168 h in “in vivo” of 14.7 mg/kg. The IC50 in the series with taenia coli (setting [2]) came out at 1.9 nM.
For `CCOC(=O)C1=C(C)NC(C)=C(C(=O)OCCN2CCN(c3ccccc3)CC2)C1c1cccc([N+](=O)[O-])c1` (centres unmarked) [0291C], in that order: 6.6 mg/kg, 25 mg/kg and 3.9 nM.
Consider `COC(=O)C1=C(C)NC(C)=C(C(=O)OCCN2CCN(c3cccc(Cl)c3)CC2)C1c1cccc([N+](=O)[O-])c1` (centres unmarked) [0255B], for which the ED (25%) in series [1] turned out to be 6.3 mg/kg. Moreover, the “Hypotensive activity compared with Nifedipine” value in series [1] (p.o.) was “superior activity”. Besides, the LD50 at 168 h in “in vivo” was 25.5 mg/kg. In addition, the IC50 with taenia coli (setting [2]) came out at 3.5 nM.
Consider `COC(=O)C1=C(C)NC(C)=C(C(=O)OCCN2CCN(c3ccc(C(F)(F)F)cc3)CC2)C1c1cccc([N+](=O)[O-])c1` (centres unmarked) [0297C, 2-[4-(4-Trifluoromethylphenyl)]piperazinoethyl-2,6-dimethyl-4-(3-nitrophenyl)-5-methoxycarbonyl-1,4-dihydropyridine-3-carboxylate], for which, in series [1], the ED (25%) was 4.4 mg/kg. Further, the LD50 at 168 h in the series “in vivo” came to 73 mg/kg. Also, the IC50 in the series on taenia coli (setting [2]) was 15 nM.
`COC(=O)C1=C(C)NC(C)=C(C(=O)OCCN2CCN(c3cccc(OC)c3)CC2)C1c1cccc([N+](=O)[O-])c1` (centres unmarked) [0298C, 2-[4-(3-Methoxyphenyl)]piperazinoethyl-2,6-dimethyl-4-(3-nitrophenyl)-5-methoxycarbonyl-1,4-dihydropyridine-3-carboxylate]: in series [1], the ED (25%) came to 32 mg/kg. The median lethal dose (LD50) at 168 h in “in vivo” is 38 mg/kg. In the series with taenia coli (setting [2]), the IC50 stood at 7.5 nM.
As for `COC(=O)C1=C(C)NC(C)=C(C(=O)OCCN2CCN(c3ccc([N+](=O)[O-])cc3)CC2)C1c1cccc([N+](=O)[O-])c1` (centres unmarked) [0295C, 2-[4-(4-Nitrophenyl)]piperazinoethyl-2,6-dimethyl-4-(3-nitrophenyl)-5-methoxycarbonyl-1,4-dihydropyridine-3-carboxylate], the ED (25%) in series [1] was over 20 mg/kg. This molecule also gave an LD50 at 168 h in the series “in vivo” of 38 mg/kg. In the series on taenia coli, the IC50 was found to be 11 nM.
In the case of `COC(=O)C1=C(C)NC(C)=C(C(=O)OCCN2CCN(c3ccccc3OC)CC2)C1c1cccc([N+](=O)[O-])c1` (centres unmarked) [0242A, 2-[4-(2-Methoxyphenyl)]-piperazino-ethyl 2,6-dimethyl-4-(3-nitrophenyl)-5-methoxycarbonyl-1,4-dihydropyridine-3-carboxylate], the ED (25%) in series [1] turned out to be 13.8 mg/kg. The LD50 at 168 h in the series “in vivo” is 2.9 mg/kg. Further, the IC50 in the series on taenia coli (setting [2]) is 3.4 nM.
Consider `COC(=O)C1=C(C)NC(C)=C(C(=O)OCCN2CCN(c3ccccn3)CC2)C1c1cccc([N+](=O)[O-])c1` (centres unmarked) [0251B], for which the ED (25%) in series [1] is 34 mg/kg. Moreover, the median lethal dose (LD50) at 168 h in the series “in vivo” turned out to be 12.6 mg/kg. Besides, the IC50 in the series on taenia coli (setting [2]) was 4.6 nM.
On the same counts, the results for `COCCOC(=O)C1=C(C)NC(C)=C(C(=O)OCCN2CCN(c3ccccc3)CC2)C1c1cccc([N+](=O)[O-])c1` (centres unmarked) [0290C, 2-(4-Phenyl)piperazinoethyl-2,6-dimethyl-4-(3-nitrophenyl)-5-(2-methoxy)ethoxycarbonyl-1,4-dihydropyridine-3-carboxylate] are 16.7 mg/kg, 7.5 mg/kg and 3 nM.
With `COC(=O)C1=C(C)NC(C)=C(C(=O)OCCN2CCN(c3ccc(Cl)c(Cl)c3)CC2)C1c1cccc([N+](=O)[O-])c1` (centres unmarked) [0285C], the ED (25%) in series [1] is 10.2 mg/kg. Further, in the series “in vivo”, the LD50 at 168 h came to 39 mg/kg. In addition, in the series with taenia coli (setting [2]), the IC50 stood at 10.5 nM.
For `CCOC(=O)C1=C(C)NC(C)=C(C(=O)OCCN2CCN(c3ccc(F)cc3)CC2)C1c1cccc([N+](=O)[O-])c1` (centres unmarked) [0284C], in that order: 5.3 mg/kg, 9.5 mg/kg and 1.3 nM.
For `COC(=O)C1=C(C)NC(C)=C(C(=O)OC)C1c1ccccc1[N+](=O)[O-]` [Nifedipine, reference compound], in series [1], the ED (25%) came out at 25 mg/kg. Also, in the series with taenia coli, the IC50 was 2.6 nM and the “Inhibition of contractions due to CaCl2 after washing of the tissue” value is “readily reversible”.
Consider `COC(=O)C1=C(C)NC(C)=C(C(=O)OCCN(C)Cc2ccccc2)C1c1cccc([N+](=O)[O-])c1` (centres unmarked) [Nicardipine, reference compound], for which the ED (25%) in series [1] was determined as 8.6 mg/kg. The IC50 in the series with taenia coli (setting [2]) came out at 2.3 nM.
Regarding `CCOC(=O)C1=C(C)NC(C)=C(C(=O)OC)C1c1cccc([N+](=O)[O-])c1` (centres unmarked) [Nitrendipine, reference compound], the IC50 with taenia coli (setting [2]) turned out to be 1.9 nM.
